The values that follow are results of earlier work, collected in paper PMC6595297 (British Journal of Clinical Pharmacology, 2019).

Structures are written as SMILES.

For the series, the system named is human P‐gp transport function. To be noted: cited from earlier work.

With `OC(Cn1cncn1)(Cn1cncn1)c1ccc(F)cc1F` [fluconazole], the “Inhibition of P‐gp (classification)” value is given as “devoid of P‐gp inhibitory effect”.
With `CCC(C)n1ncn(-c2ccc(N3CCN(c4ccc(OCC5COC(Cn6cncn6)(c6ccc(Cl)cc6Cl)O5)cc4)CC3)cc2)c1=O` (centres unmarked) [itraconazole], the “Inhibition of P‐gp (classification)” value was “strong dual inhibitor of CYP3A and P‐gp”.
